The values that follow come from patent publication US5968737A, “Method of identifying inhibitors of glutathione S-transferase (GST) gene expression” (The University of Mississippi, priority 1996, dated 1999).

For test [1], the target named is T1, human GST-π variant GSTP1c-1c, recombinant, encoded by hGSTP1*C (Ile104→Val104, Ala113→Val113; SEQ ID NO:7 and SEQ ID NO:8) (Homo sapiens, UniProt P09211, A114V/I105V).
T1 construct: made in house; host or cells: E. coli (XL1 Blue, pBK-CMV vector)
The experiment in a line: Enzyme kinetics: catalysis of the conjugation of GSH with CDNB by purified recombinant GST-π protein. It is filed as biochemical. As to conditions: 25° C., 0.1M K-phosphate buffer pH 8.3, 2.5 mM GSH. As for the experimental part: (§1) FIGS. 8A-C. Lineweaver-Burke plots for the catalysis of the conjugation of GSH with CDNB by GSH-affinity chromatography purified recombinant GSTP1a-1a (FIG. 8A), GSTP1b-1b (FIG. 8B) and GSTP1c-1c (FIG. 8C). Reaction rates were determined with 2.5 mM GSH and 0.015 unit of each enzyme.
(§2) Purification and enzyme kinetic analysis of variant GST-π proteins. Functional consequences of the structural differences in the GST-π variant proteins was determined by the differential ability of the recombinant GST-π proteins to catalyze the conjugation of GSH with 1-chloro-2,4-dinitrobenzene (CDNB), a universal GST substrate. After expression in E. coli, the three GST-π proteins were purified by GSH-affinity chromatography on S-hexyl glutathione linked to epoxy-activated sepharose 6B, as previously described (Simons and Van der Jagt, 1981) and then used for enzyme kinetic analysis. Reaction mixtures (25° C.) in 100 mM potassium phosphate buffer, pH 8.3 contained 0.5-2.5 mM CDNB, 2.5 mM GSH and 0.015 unit of purified GST-π protein. The change in absorbance was monitored at 340 nm over two minutes and used to compute reaction rates. The rates of the spontaneous reactions of GSH with CDNB, determined with reaction mixtures in which the GST-π enzyme was replaced with buffer, were subtracted from the rates of the enzyme catalyzed reactions. The resulting reaction rates were used to generate double reciprocal plots from which Vmax and Km values were determined, using standard methodology (Segel, 1976).

For test [2], the target named is T2, human GST-π variant GSTP1b-1b, recombinant, encoded by hGSTP1*B (Ile104→Val104; SEQ ID NO:5 and SEQ ID NO:6) (Homo sapiens, UniProt P09211, I105V).
T2 construct: made in house; host or cells: E. coli (XL1 Blue, pBK-CMV vector)
The test is described as above. It is filed as biochemical. As to conditions: 25° C., 0.1M K-phosphate buffer pH 8.3, 2.5 mM GSH. As for the experimental part:
as §1, §2

Test [3] has as its target T3, human GST-π GSTP1a-1a, recombinant, encoded by hGSTP1*A (Ile104, Ala113; SEQ ID NO:3 and SEQ ID NO:4) (Homo sapiens, UniProt P09211).
T3 construct: made in house; host or cells: E. coli (XL1 Blue, pBK-CMV vector)
The description is as above. It is filed as biochemical. The conditions noted are these: 25° C., 0.1M K-phosphate buffer pH 8.3, 2.5 mM GSH. As to the method: as §1, §2

For test [4], the system named is GST-π gene expression in MGR-3 cells. The experiment in a line: Retinoic acid effect on GST-π gene expression in tumor cells (Northern and Western blotting). It is filed as cell-based. The conditions noted are these: Homo sapiens. As to the method:
Retinoic acid effect on GST-π gene expression in tumor cells. To further determine the functionality of the RAREs in GST-π gene of MGR-3 cell line, we examined changes in GST-π gene transcripts in MGR-3 cells after exposure to RA. For this study, MGR-3 cells in exponential growth were treated with 1 μM all-trans RA. Another set cultures without RA treatment served as controls. After 24 and 48 hrs incubation at 37° C., total RNA was extracted and GST-π gene transcript levels were determined by Northern blotting, as described earlier. Alterations in GST-π protein content was determined in cells similarly treated with 1 μM all-trans RA. Cultures were harvested after 0, 12, 24 and 48 hrs post-RA exposure, cell extracts prepared from them, as previously described, and subjected to Western blotting with anti-GST-π antibodies.

Test [5] relates to RAR-β levels in MGR-3 cells. Kind of test: Induction of RAR-β in nuclear extracts of RA-treated MGR-3 cells (immunoprecipitation). As to conditions: Homo sapiens, 48-hr exposure, read-out: increase in RAR-β levels compared to untreated controls. It is filed as cell-based.
Where [6] appears, read: listed as 1-Chloro-2,4-dinitrobenzene.

Like-named read-outs stand apart in the source and are kept apart here.

T1 sequence (P09211 2-210 I105V/A114V): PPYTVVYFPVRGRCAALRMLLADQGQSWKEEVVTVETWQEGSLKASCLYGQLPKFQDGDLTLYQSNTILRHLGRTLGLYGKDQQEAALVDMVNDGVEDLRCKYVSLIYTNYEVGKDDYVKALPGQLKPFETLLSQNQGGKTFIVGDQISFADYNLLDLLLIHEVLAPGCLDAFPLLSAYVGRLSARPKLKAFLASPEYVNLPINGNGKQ
T2 sequence (P09211 2-210 I105V): as the sequence (P09211 2-210 I105V/A114V) above, with V113A counted along it
T3 sequence (P09211 2-210 limits assumed): as the sequence (P09211 2-210 I105V/A114V) above, with V104I, V113A counted along it

Take `O=[N+]([O-])c1ccc(Cl)c([N+](=O)[O-])c1` [CDNB, 1-chloro-2,4-dinitrobenzene]: the “Vmax (CDNB)” value in test [1] worked out at 1.4 ± 0.23 µmol/min/mg; in test [1] (setting [6]), 1.4 ± 0.23 µmol/min/mg; in test [2], 1.7 ± 0.087 µmol/min/mg; in test [2] (setting [6]), 1.6 ± 0.087 µmol/min/mg; in test [3], 4.7 ± 0.03 µmol/min/mg; in test [3] (setting [6]) it was 4.7 ± 0.03 µmol/min/mg. Besides, the Km was 3100 ± 170 µM in test [1] (0.5-2.5 mM CDNB), 2700 ± 23 µM in test [2] (0.5-2.5 mM CDNB) and 980 µM in test [3] (0.5-2.5 mM CDNB).

Turning to `CC1=C(/C=C/C(C)=C/C=C/C(C)=C/C(=O)O)C(C)(C)CCC1` [all-trans retinoic acid], the fold induction at 1 µM in test [4] (1.0 μM, 48 hr, Northern analysis, read-out: increase in the level of GST-π gene transcripts relative to control levels (maximum)) was 3.4; in test [4] (1 μM, 48 hrs, Western blot, read-out: increase in GST-π protein content relative to untreated controls) it was 2.8; in test [5] it was greater than 3.
